# Several values for one entry are separate records, joined by “and”; a condition that tells them apart may be missing. Equal values may be shown once. Read-outs that look alike come from different tables or passages of the source.
# Columns and labels:
# PfMDH = target: T1, PfMDH (Plasmodium falciparum, UniProt Q6VVP7); assay: Thermal shift assay (TSA); type: binding; settings: three replicate columns
# T1 construct: The full-length WT PfMDH gene was cloned into pETM-13; made in house; host or cells: E. coli Rosetta 2 (DE3) pLysS
# T1 sequence (Q6VVP7 entry or part of it): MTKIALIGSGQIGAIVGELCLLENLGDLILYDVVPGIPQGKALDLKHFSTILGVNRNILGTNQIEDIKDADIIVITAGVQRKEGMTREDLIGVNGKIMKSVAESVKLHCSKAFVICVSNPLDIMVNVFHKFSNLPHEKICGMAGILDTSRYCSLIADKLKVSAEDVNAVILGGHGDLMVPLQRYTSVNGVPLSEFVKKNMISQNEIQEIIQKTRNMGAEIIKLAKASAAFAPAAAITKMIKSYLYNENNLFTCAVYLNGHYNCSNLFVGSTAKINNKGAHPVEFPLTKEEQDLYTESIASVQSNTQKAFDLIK
# Procedure: The TSA experiment was conducted in a BioRad CSX 96 (Biorad). Each reaction consisted of 1 mM of compound (100 mM stock in 100% (v/v) DMSO) and 10 μM PfMDH in 100 mM Na–phosphate buffer pH 7.4, 400 mM NaCl, and 10× Sypro Orange (Invitrogen) for a total volume of 100 μl. Control experiments were performed with 1% (v/v) DMSO. Inflection points were determined using BioRad CFX96™ control software. Generally, a temperature increase of over 1 °C is interpreted as a result of the stabilization of the protein-ligand interaction. On the contrary, a negative shift is considered a destabilization caused by the fragment.
# WT PfMDH = target: T2, WT PfMDH (Plasmodium falciparum, UniProt Q6VVP7); assay: Activity screening of 4DT / 4-phenylthiazol-2-amine derivatives (oxidation of malate, absorbance at 340 nm); type: biochemical
# T2 construct: The full-length WT PfMDH gene was cloned into pETM-13; made in house; host or cells: E. coli Rosetta 2 (DE3) pLysS
# T2 sequence (Q6VVP7 entry or part of it): as above
# Procedure: The oxidation of malate to oxaloacetate was assayed spectrophotometrically in flat-bottomed Corning 96-well microplates in a total volume of 250.0 µl in 50 mM glycine buffer pH 10.2[24] with an additional 400 mM NaCl for protein stability. The increase of absorbance at 340 nm was recorded in kinetic mode using a Tecan Spark multimode microplate reader at 298 K. A mastermix of 50 mM NAD+ and 44 μM PfMDH was used for both the screening and kinetics experiments. The final concentration of protein and cofactor were […], respectively. Positive control groups were set (absence of compound) in the same plate as the treated group. The absorbance from the background noise was subtracted from the data and then a linear regression model was employed in order to get the line slope from the first 5 min of the reaction. The percentage of enzymatic activity has been calculated as described by Eq. (1)1 enzymeactivity(%)=slopetreated/slopepositivecontrol*100
# 1.3 µL of derivatives of 4-phenylthiazol-2-amine in 100% DMSO were mixed with 237.7 µL of a mastermix of WT PfMDH previously incubated with NAD+. The final compound concentration used in this screening was 500 µM in the presence of 0.5% (v/v) DMSO. The microplate was sealed with silver foil for 1-h incubation at 25–35 °C. Finally, reactions in both the samples and control wells were started upon the addition of 13.0 µL of 5 mM malate). At the end of the experiments, the reaction of the plate was spectrophotometrically assayed at 600 nm in order to identify turbidity due to the low solubility of the compound. All measurements were performed in duplicate.
smiles,measurement,setting,value
Cc1ccc(-c2csc(N)n2)cc1C [compound 5a],TSA melting curve raw fluorescence signal,PfMDH; Temperature 75,"6191,69391237371 and 6136,98106377792 and 6022,22137708791"
same,TSA melting curve raw fluorescence signal,PfMDH; Temperature 75.5,"6155,53394325777 and 6106,56217628376 and 5994,69779058543"
same,TSA melting curve raw fluorescence signal,PfMDH; Temperature 76,"6119,21897947977 and 6076,80705748139 and 5967,4462924716"
same,TSA melting curve raw fluorescence signal,PfMDH; Temperature 76.5,"6082,92591216179 and 6047,4145361092 and 5940,31651314489"
same,TSA melting curve raw fluorescence signal,PfMDH; Temperature 77,"6046,49720538895 and 6018,41753205572 and 5913,27495012434"
same,TSA melting curve raw fluorescence signal,PfMDH; Temperature 77.5,"6010,50289688288 and 5990,00501222795 and 5885,78980691114"
same,TSA melting curve raw fluorescence signal,PfMDH; Temperature 78,"5974,68191071035 and 5961,9413128759 and 5858,29554785782"
same,TSA melting curve raw fluorescence signal,PfMDH; Temperature 78.5,"5938,84446109596 and 5933,98335794503 and 5831,1047548002"
same,TSA melting curve raw fluorescence signal,PfMDH; Temperature 79,"5902,97195912381 and 5906,58331664414 and 5804,43914738993"
same,TSA melting curve raw fluorescence signal,PfMDH; Temperature 79.5,"5867,41053847852 and 5879,50936774398 and 5777,86836204367"
same,TSA melting curve raw fluorescence signal,PfMDH; Temperature 80,"5831,53193853565 and 5852,76984504973 and 5751,94689709266"
same,TSA melting curve raw fluorescence signal,PfMDH; Temperature 80.5,"5795,82019427429 and 5826,58557638173 and 5726,2038969697"
same,TSA melting curve raw fluorescence signal,PfMDH; Temperature 81,"5760,30095342266 and 5801,18894213247 and 5700,36557719877"
same,TSA melting curve raw fluorescence signal,PfMDH; Temperature 81.5,"5725,24994225392 and 5776,10279717956 and 5674,32010159986"
same,TSA melting curve raw fluorescence signal,PfMDH; Temperature 82,"5690,32532905286 and 5751,3477386949 and 5648,72005725552"
same,TSA melting curve raw fluorescence signal,PfMDH; Temperature 82.5,"5655,78245522646 and 5726,77680893998 and 5623,03287837809"
same,TSA melting curve raw fluorescence signal,PfMDH; Temperature 83,"5621,55211537617 and 5702,38981297221 and 5597,5741352507"
same,TSA melting curve raw fluorescence signal,PfMDH; Temperature 83.5,"5587,90100461892 and 5677,89080987549 and 5572,13715933177"
same,TSA melting curve raw fluorescence signal,PfMDH; Temperature 84,"5554,68764858678 and 5653,54864689514 and 5546,61264074355"
same,TSA melting curve raw fluorescence signal,PfMDH; Temperature 84.5,"5522,12797974512 and 5629,23115607744 and 5520,89063035555"
same,TSA melting curve raw fluorescence signal,PfMDH; Temperature 85,"5490,3943722303 and 5605,20109514197 and 5495,02372927899"
same,TSA melting curve raw fluorescence signal,PfMDH; Temperature 85.5,"5459,26859138261 and 5580,93868945953 and 5469,03090217972"
same,TSA melting curve raw fluorescence signal,PfMDH; Temperature 86,"5428,58283846294 and 5556,95201224284 and 5443,19308365262"
same,TSA melting curve raw fluorescence signal,PfMDH; Temperature 86.5,"5398,09747442684 and 5532,99737771582 and 5417,41903670835"
same,TSA melting curve raw fluorescence signal,PfMDH; Temperature 87,"5367,90135308437 and 5508,96565185791 and 5391,30496945424"
same,TSA melting curve raw fluorescence signal,PfMDH; Temperature 87.5,"5337,34531670684 and 5484,37750610498 and 5364,66521912081"
same,TSA melting curve raw fluorescence signal,PfMDH; Temperature 88,"5306,8503048902 and 5459,61999119873 and 5337,15073673697"
same,TSA melting curve raw fluorescence signal,PfMDH; Temperature 88.5,"5276,4616972104 and 5434,08494262397 and 5308,68599271431"
same,TSA melting curve raw fluorescence signal,PfMDH; Temperature 89,"5246,27326568905 and 5407,79046445709 and 5279,36241888361"
same,TSA melting curve raw fluorescence signal,PfMDH; Temperature 89.5,"5216,45044474314 and 5380,95498835197 and 5249,45359350464"
same,TSA melting curve raw fluorescence signal,PfMDH; Temperature 90,"5187,98991931244"
same,remaining activity at 500 µM,"WT PfMDH; 500 µM compound, Dunnett test details, positive control mean 100, n 2, read-out: Mean 2 (mean % enzymatic activity of treated group)",52%
same,inhibition at 500 µM,"WT PfMDH; 500 µM compound, Dunnett's multiple comparisons test, read-out: Mean Diff. (positive control vs. compound)",48.5%
same,remaining activity at 500 µM,"WT PfMDH; 500 µM compound, control 100%, replicate 1, read-out: % enzymatic activity repl1",56%
same,remaining activity at 500 µM,"WT PfMDH; 500 µM compound, control 100%, replicate 2, read-out: % enzymatic activity repl2",47%
same,Slope repl1,"WT PfMDH; 500 µM compound, linear regression slope of absorbance 340 nm vs time, replicate 1",0.01855
same,Slope repl2,"WT PfMDH; 500 µM compound, linear regression slope of absorbance 340 nm vs time, replicate 2",0.01659
same,Slope normalized repl1,"WT PfMDH; 500 µM compound, slope relative to control = 1, replicate 1",0.5569
same,Slope normalized repl2,"WT PfMDH; 500 µM compound, slope relative to control = 1, replicate 2",0.4735
same,remaining activity at 500 µM,WT PfMDH; read-out: enzyme activity,52%

# Reference: article PMC8355244, “A fragment-based approach identifies an allosteric pocket that impacts malate dehydrogenase activity” (Communications Biology, 2021)
